{"source": "patent US20080317769A1", "about": "“Vaccine Composition Comprising Alpha-Galactosylceramide as an Adjuvant For Intranasal Administration” (priority 2005, published 2008)", "key": {"[1]": {"system": "OVA257-264 pulsed CFSE^high spleen cells", "test": "In vivo CTL assay: specific lysis of OVA257-264 pulsed CFSE-high cells by FACS, C57BL/6 mice", "conditions": "all αGalCer dose groups + OVA intranasal, vs vehicle alone or OVA alone, dose-dependent", "procedure": "Spleen cells were separated from naive C57BL/6 mice, which were pulsed with 1 μM of OVA257-264 at 37° C. for 90 minutes. The pulsed cells were labeled with 20 μM of CFSE (Molecular Probes, USA) at 37° C. for 15 minutes, resulting in OVA257-264 pulsed CFSE^high cells. In the meantime, the unpulsed cells were labeled with 2 μM of CFSE (Molecular Probes, USA) at 37° C. for 15 minutes, resulting in the OVA257-264 unpulsed CFSE^low cells. The equal numbers of peptide-pulsed CFSE^high cells and unpulsed CFSE^low cells were mixed, which were intravenously injected to mice at the number of 2×10^7 cells one week after the final immunization. 24 hours later, specific lysis of peptide-pulsed CFSE^high cell was investigated by using FACS in spleen, mesenteric lymph node (MLN) and cervical lymph node (CLN)."}, "[2]": {"conditions": "dose escalation study, 50-4800 μg/m^2; cited from earlier work"}, "[3]": {"system": "IFN-γ-producing CD8+ T cells", "test": "IFN-γ-producing CD8+ T cells by intracellular cytokine staining, Balb/c mice, OVA", "type": "in vivo", "conditions": "splenocytes cultured 4 days with 500 μg/ml OVA, with the increase of αGalCer concentration", "procedure": "OVA dose not include an epitope peptide binding to a MHC class I molecule in Balb/c mouse. So, to investigate cytotoxic activity induced by αGalCer adjuvant in the Balb/c mouse, the numbers of IFN-γ-producing CD8+ T cells were measured (FIG. 11). Particularly, the cells (2×10^6 cells/ml) were cultured for 4 days with 500 μg/ml of OVA, to which 1 μl/ml of GolgiPug™ (BD Pharmigen, USA) was added 6 hours before termination of the culture. Then, staining was performed by using FITC-conjugated CD3 mAb (Clone 145-2C11, Biolegend Inc, USA), PE-conjugated CD8 mAb (Clone 53-6.7, Biolegend Inc, USA) and APC-conjugated IFN-γ mAb (Clone XMG1.2, Biolegend Inc, USA). Intracellular staining was performed with BD Cytofix/Cytoperm Plus™ (BD Pharmigen, USA) according to the manufacturer's instruction, and the stained cells were analyzed with FACSCalibur (BD Bioscience, USA) and CellQuest software (BD Bioscience, USA)."}, "[4]": {"conditions": "mouse treated with 2200 μg/Kg of αGalCer; cited from earlier work"}}, "data": [{"smiles": "CCCCCCCCCCCCCCCCCCCCCCCCCC(=O)N[C@@H](CO[C@H]1O[C@H](CO)[C@H](O)[C@H](O)[C@H]1O)[C@H](O)[C@H](O)CCCCCCCCCCCCCC", "note": "[αGalCer, alpha-galactosylceramide]", "values": [{"measurement": "CTL cytotoxicity (specific lysis) in spleen, MLN and CLN", "setting": "[1]", "result": "dose-dependent lytic activity"}, {"measurement": "CTL cytotoxicity (specific lysis) in spleen, MLN and CLN", "setting": "[1]; listed as α-GalCer", "result": "higher cytotoxicity"}, {"measurement": "dose-limiting toxicity", "setting": "[2]", "result": "does not cause dose-limiting toxicity"}, {"measurement": "numbers of IFN-γ-producing CD8+ T cells, relation to αGalCer concentration", "setting": "[3]", "result": "decreased"}, {"measurement": "side effects", "setting": "[4]", "result": "no side effects"}]}]}
